The target of test [1] is T1, MAGL (Homo sapiens, UniProt Q99685).
T1 sequence (Q99685 1-303): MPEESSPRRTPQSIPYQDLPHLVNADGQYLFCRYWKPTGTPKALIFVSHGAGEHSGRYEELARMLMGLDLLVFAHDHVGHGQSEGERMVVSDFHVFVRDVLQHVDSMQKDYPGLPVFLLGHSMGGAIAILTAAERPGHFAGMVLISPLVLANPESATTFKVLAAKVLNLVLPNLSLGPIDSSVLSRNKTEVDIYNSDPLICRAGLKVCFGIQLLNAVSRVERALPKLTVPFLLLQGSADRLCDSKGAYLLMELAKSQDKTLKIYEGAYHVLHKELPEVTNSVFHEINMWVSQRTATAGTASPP
Briefly: In vitro competitive activity-based protein profiling, PC3 human cell membrane proteomes. The arrangement: endogenous in cells; host or cells: PC3 human cells (membrane proteome). To be noted: human PC3 membrane proteome; for inhibition at 1 µM: read-out: MAGL % inh. 1 μM (human PC3). The class given is biochemical. The essentials:
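Competitive ABPP in PC3 membrane proteome (2.0 mg/mL protein): inhibitors preincubated 30 min at 37° C, then JW912-Bodipy probe added for 30 min at room temperature. MAGL band fluorescence after SDS-PAGE normalised to DMSO; IC50 from 4-parameter sigmoidal fit.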

The target of test [2] is T1, MAGL. Briefly: In vitro competitive substrate hydrolysis enzyme activity assay (pNPA), HEK293 cell lysates. The class given is biochemical. Further details: expressed in transfected cells; host or cells: HEK293. To be noted: HEK293 lysate. Here is the method: HEK293 cell lysates expressing recombinant human MAGL enzyme and 4-nitrophenyl acetate (pNPA) substrate were diluted separately in 50 mM HEPES (pH 7.0) containing 200 mM KCl and 1 mM EDTA. Lysates (50 μL, ˜1.2 μg total protein) were preincubated with varying concentrations of inhibitors at 25° C. After 30 min, 2×pNPA substrate (50 μL, 2.5 mM) was added and the rate of substrate turnover was monitored by measuring the increase in absorbance at wavelength 405 nm for 20 minutes at 25° C. using a Biotek Neo2 plate reader. The mean velocity was converted to percent enzyme activity following background subtraction and normalization to DMSO controls. IC50 values were determined by fitting percent enzyme activities to a non-linear regression, 4-parameter, sigmoidal dose response function in Prism GraphPad.

Each structure is given as a SMILES string.

Broadly, the IC50 is the midpoint of a concentration-inhibition curve. A low value points to inhibition by little substance.

With `O=C(OC(C(F)(F)F)C(F)(F)F)N1CCC2(CC1)CC2C(=O)N1CCn2ccnc2C1` (racemic) [Example 186, 1,1,1,3,3,3-hexafluoropropan-2-yl (+)1-(5,6,7,8-tetrahydroimidazo[1,2-a]pyrazine-7-carbonyl)-6-azaspiro[2.5]octane-6-carboxylate], the inhibition at 1 µM in test [1] was found to be 100%. In test [2], this compound displayed an IC50 of 0.168 µM.

As for `O=C(OC(C(F)(F)F)C(F)(F)F)N1CCC2(CC1)CC2C(=O)N1CCc2cncnc2C1` (racemic) [Example 187, 1,1,1,3,3,3-hexafluoropropan-2-yl (+)1-(5,6,7,8-tetrahydropyrido[3,4-d]pyrimidine-7-carbonyl)-6-azaspiro[2.5]octane-6-carboxylate], the inhibition at 1 µM in test [1] was 100%. The IC50 was 0.11 µM in test [1] and 0.143 µM in test [2].

Consider `CN(C(=O)C1CC12CCN(C(=O)OC(C(F)(F)F)C(F)(F)F)CC2)c1cccnn1` (racemic) [Example 188, 1,1,1,3,3,3-hexafluoropropan-2-yl (+)1-(methyl(pyridazin-3-yl)carbamoyl)-6-azaspiro[2.5]octane-6-carboxylate], for which, in test [1], the inhibition at 1 µM came out at 100% and the IC50 is 0.12 µM. The same compound displayed an IC50 in test [2] of 0.249 µM.

`O=C(Nc1cccnc1)[C@@H]1CC12CCN(C(=O)OC(C(F)(F)F)C(F)(F)F)CC2` (single isomer, unassigned) [Example 3]: the inhibition at 1 µM in test [1] stood at 100%. For the same compound, the IC50 in test [1] worked out at 0.127 µM; in test [2], 0.435 µM.

As for `CN(C(=O)[C@@H]1CC12CCN(C(=O)OC(C(F)(F)F)C(F)(F)F)CC2)c1cnccn1` (single isomer, unassigned) [Example 11], in test [1], the inhibition at 1 µM was determined as 100% and the IC50 was 0.032 µM. Further, the IC50 in test [2] was determined as 0.0993 µM.

As to `CN(C(=O)[C@H]1CC12CCN(C(=O)OC(C(F)(F)F)C(F)(F)F)CC2)c1cnccn1` (single isomer, unassigned) [Example 12], the inhibition at 1 µM in test [1] is 100%. In addition, the IC50 in test [2] was 0.102 µM.

Take `O=C(Nc1ccnc(C(F)(F)F)n1)[C@H]1CC12CCN(C(=O)OC(C(F)(F)F)C(F)(F)F)CC2` (single isomer, unassigned) [Example 17]: in test [1], the inhibition at 1 µM worked out at 100% and the IC50 amounted to 0.001 µM. The same compound registered an IC50 in test [2] of 0.00421 µM.

In the case of `O=C(Nc1ccnc(C(F)(F)F)n1)[C@@H]1CC12CCN(C(=O)OC(C(F)(F)F)C(F)(F)F)CC2` (single isomer, unassigned) [Example 18], the inhibition at 1 µM in test [1] was 100%. Also, the IC50 was found to be 0.039 µM in test [1] and 0.053 µM in test [2].

On to `O=C(Nc1cncc(F)c1)C1CC12CCN(C(=O)OC(C(F)(F)F)C(F)(F)F)CC2` (single isomer, unassigned) [Example 39, 1,1,1,3,3,3-hexafluoropropan-2-yl (R or S)-1-((5-fluoropyridin-3-yl)carbamoyl)-6-azaspiro[2.5]octane-6-carboxylate], for which, in test [1], the inhibition at 1 µM came out at 90% and the IC50 worked out at 0.29 µM. In test [2], this compound returned an IC50 of 0.319 µM.

Turning to `CN(C(=O)C1CC12CCN(C(=O)OC(C(F)(F)F)C(F)(F)F)CC2)c1cccnc1` (single isomer, unassigned) [Example 42, 1,1,1,3,3,3-hexafluoropropan-2-yl (R or S)-1-(methyl(pyridin-3-yl)carbamoyl)-6-azaspiro[2.5]octane-6-carboxylate], the inhibition at 1 µM in test [1] came to 100%. In test [2], the IC50 came out at 0.243 µM.

For `CN(C(=O)C1CC12CCN(C(=O)OC(C(F)(F)F)C(F)(F)F)CC2)c1cccnc1` (single isomer, unassigned) [Example 43, 1,1,1,3,3,3-hexafluoropropan-2-yl (R or S)-1-(methyl(pyridin-3-yl)carbamoyl)-6-azaspiro[2.5]octane-6-carboxylate], the IC50 in test [1] is 0.04 µM; in test [2], 0.244 µM.

Take `CN(C(=O)C1CC12CCN(C(=O)OC(C(F)(F)F)C(F)(F)F)CC2)c1ccccn1` (single isomer, unassigned) [Example 45, 1,1,1,3,3,3-hexafluoropropan-2-yl (R or S)-1-(methyl(pyridin-2-yl)carbamoyl)-6-azaspiro[2.5]octane-6-carboxylate]: in test [1], the inhibition at 1 µM came to 100% and the IC50 turned out to be 0.014 µM. In test [2], this compound had an IC50 of 0.06 µM.

With `O=C(Nc1ccccn1)C1CC12CCN(C(=O)OC(C(F)(F)F)C(F)(F)F)CC2` (single isomer, unassigned) [Example 48, 1,1,1,3,3,3-hexafluoropropan-2-yl (R or S)-1-(pyridin-2-ylcarbamoyl)-6-azaspiro[2.5]octane-6-carboxylate], the inhibition at 1 µM in test [1] was 100%. The same compound gave an IC50 in test [2] of 0.139 µM.

Take `O=C(OC(C(F)(F)F)C(F)(F)F)N1CCC2(CC1)CC2C(=O)N1CCn2cc(C(F)(F)F)nc2C1` (single isomer, unassigned) [Example 51, 1,1,1,3,3,3-hexafluoropropan-2-yl (R or S)-1-(2-(trifluoromethyl)-5,6,7,8-tetrahydroimidazo[1,2-a]pyrazine-7-carbonyl)-6-azaspiro[2.5]octane-6-carboxylate]: the inhibition at 1 µM in test [1] was 100%. The IC50 stood at 0.0048 µM in test [1] and 0.0232 µM in test [2].

As to `O=C(Nc1cnccn1)C1CC12CCN(C(=O)OC(C(F)(F)F)C(F)(F)F)CC2` (single isomer, unassigned) [Example 54, 1,1,1,3,3,3-hexafluoropropan-2-yl (R or S)-1-(pyrazin-2-ylcarbamoyl)-6-azaspiro[2.5]octane-6-carboxylate], in test [1], the inhibition at 1 µM came to 100%. This compound also displayed an IC50 in test [2] of 0.111 µM.

Turning to `O=C(OC(C(F)(F)F)C(F)(F)F)N1CCC2(CC1)CC2C(=O)N1CCc2cnc(C(F)(F)F)nc2C1` (single isomer, unassigned) [Example 57, 1,1,1,3,3,3-hexafluoropropan-2-yl (R or S)-1-(2-(trifluoromethyl)-5,6,7,8-tetrahydropyrido[3,4-d]pyrimidine-7-carbonyl)-6-azaspiro[2.5]octane-6-carboxylate], the inhibition at 1 µM in test [1] was found to be 100%. The IC50 is 0.0017 µM in test [1] and 0.00473 µM in test [2].

For the compound `O=C(OC(C(F)(F)F)C(F)(F)F)N1CCC2(CC1)CC2C(=O)N1CCc2cnc(C(F)(F)F)nc2C1` (single isomer, unassigned) [Example 58, 1,1,1,3,3,3-hexafluoropropan-2-yl (R or S)-1-(2-(trifluoromethyl)-5,6,7,8-tetrahydropyrido[3,4-d]pyrimidine-7-carbonyl)-6-azaspiro[2.5]octane-6-carboxylate], the IC50 was determined as 0.049 µM in test [1] and 0.138 µM in test [2].

As for `O=C(OC(C(F)(F)F)C(F)(F)F)N1CCC2(CC1)CC2C(=O)N1CCc2ncncc2C1` (single isomer, unassigned) [Example 60, 1,1,1,3,3,3-hexafluoropropan-2-yl (R or S)-1-(5,6,7,8-tetrahydropyrido[4,3-d]pyrimidine-6-carbonyl)-6-azaspiro[2.5]octane-6-carboxylate], the IC50 is 0.036 µM in test [1] and 0.0854 µM in test [2].

The values above are taken from US20240018120A1, “MAGL INHIBITORS” (H. LUNDBECK A/S, priority 2020, published 2024).
